In the supplement of paper PMC10307832:

What was measured:
Assay in all cases: relative viability (nuclei count vs DMSO), 5 days (fraction); higher = more cells survive
IA-LM = system: IA-LM
Procedure, shortened: (§1)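 After 5 days of treatment, lung cancer cells in 1536-well plates were fixed and stained in a single step (final 0.05% Triton X-100, 1% formaldehyde, 1 ug/ml Hoechst) and their nuclei counted on 4× images. Treatment had been applied by pin tool the day after seeding as one drug alone or as a fixed anchor-drug dose with five library-drug doses (not always all listed) in √10 steps. Relative viability is the nuclei count of treated wells divided by that of vehicle wells, and values are medians of duplicate plates.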

ABC-1 = system: ABC-1
Procedure, shortened: as §1

NCI-H2126 = system: NCI-H2126
Procedure, shortened: as §1

NCI-H1299 = system: NCI-H1299
Procedure, shortened: as §1

NCI-H1703 = system: NCI-H1703
Procedure, shortened: as §1

EKVX = system: EKVX
Procedure, shortened: as §1

NCI-H2085 = system: NCI-H2085
Procedure, shortened: as §1

EBC-1 = system: EBC-1
Procedure, shortened: as §1

Calu-6 = system: Calu-6
Procedure, shortened: as §1

NCI-H1993 = system: NCI-H1993
Procedure, shortened: as §1

RERF-LC-KJ = system: RERF-LC-KJ
Procedure, shortened: as §1

HCC-44 = system: HCC-44
Procedure, shortened: as §1

A549 = system: A549
Procedure, shortened: as §1

In the case of `COc1cc2nccc(Oc3ccc(NC(=O)Nc4cc(C)on4)c(Cl)c3)c2cc1OC` [Tivozanib] + C[C@]1(O)C[C@@H](c2nc(-c3ccc4ccc(-c5ccccc5)nc4c3)c3c(N)nccn32)C1 [Linsitinib] (partner 1 µM), the relative viability (IA-LM; first compound 0.005 µM) is reported as 0.526, the relative viability (IA-LM; first compound 0.01581 µM) is reported as 0.508 and the relative viability (IA-LM; first compound 0.05 µM) is reported as 0.573. For the same compound, the relative viability (IA-LM; first compound 0.1581 µM) was 0.467, the relative viability (IA-LM; first compound 0.5 µM) was 0.511 and the relative viability (ABC-1; first compound 0.005 µM) was 0.716. For the same compound, the relative viability (ABC-1; first compound 0.01581 µM) was 0.887, the relative viability (ABC-1; first compound 0.05 µM) was 0.676 and the relative viability (ABC-1; first compound 0.1581 µM) was 0.745. The relative viability (ABC-1; first compound 0.5 µM) was 0.783, the relative viability (NCI-H2126; first compound 0.005 µM) was 0.651 and the relative viability (NCI-H2126; first compound 0.01581 µM) was 0.697. The relative viability (NCI-H2126; first compound 0.05 µM) was 0.734, the relative viability (NCI-H2126; first compound 0.1581 µM) was 0.52 and the relative viability (NCI-H2126; first compound 0.5 µM) was 0.747. The relative viability (NCI-H1299; first compound 0.005 µM) was 0.956, the relative viability (NCI-H1299; first compound 0.01581 µM) was 0.981 and the relative viability (NCI-H1299; first compound 0.05 µM) was 0.981. For the same compound, the relative viability (NCI-H1299; first compound 0.1581 µM) was 0.998, the relative viability (NCI-H1299; first compound 0.5 µM) was 0.841 and the relative viability (NCI-H1703; first compound 0.005 µM) was 0.402. For the same compound, the relative viability (NCI-H1703; first compound 0.01581 µM) was 0.254, the relative viability (NCI-H1703; first compound 0.05 µM) was 0.167 and the relative viability (NCI-H1703; first compound 0.1581 µM) was 0.158. For the same compound, the relative viability (NCI-H1703; first compound 0.5 µM) was 0.283, the relative viability (EKVX; first compound 0.005 µM) was 0.95 and the relative viability (EKVX; first compound 0.01581 µM) was 0.931. For the same compound, the relative viability (EKVX; first compound 0.05 µM) was 1.07, the relative viability (EKVX; first compound 0.1581 µM) was 1.07 and the relative viability (EKVX; first compound 0.5 µM) was 1.09. It also gave a relative viability (NCI-H2085; first compound 0.005 µM) of 0.917, a relative viability (NCI-H2085; first compound 0.01581 µM) of 0.854 and a relative viability (NCI-H2085; first compound 0.05 µM) of 1.06. The relative viability (NCI-H2085; first compound 0.1581 µM) was 0.781, the relative viability (NCI-H2085; first compound 0.5 µM) was 0.877 and the relative viability (EBC-1; first compound 0.005 µM) was 0.86. The relative viability (EBC-1; first compound 0.01581 µM) was 0.898, the relative viability (EBC-1; first compound 0.05 µM) was 0.909 and the relative viability (EBC-1; first compound 0.1581 µM) was 0.762. It also gave a relative viability (EBC-1; first compound 0.5 µM) of 0.887, a relative viability (Calu-6; first compound 0.005 µM) of 0.89 and a relative viability (Calu-6; first compound 0.01581 µM) of 0.941. It also gave a relative viability (Calu-6; first compound 0.05 µM) of 0.894, a relative viability (Calu-6; first compound 0.1581 µM) of 0.915 and a relative viability (Calu-6; first compound 0.5 µM) of 0.83. For the same compound, the relative viability (NCI-H1993; first compound 0.005 µM) was 0.698, the relative viability (NCI-H1993; first compound 0.01581 µM) was 0.777 and the relative viability (NCI-H1993; first compound 0.05 µM) was 0.79. For the same compound, the relative viability (NCI-H1993; first compound 0.1581 µM) was 0.638, the relative viability (NCI-H1993; first compound 0.5 µM) was 0.758 and the relative viability (RERF-LC-KJ; first compound 0.005 µM) was 0.828. For the same compound, the relative viability (RERF-LC-KJ; first compound 0.01581 µM) was 0.855, the relative viability (RERF-LC-KJ; first compound 0.05 µM) was 0.901 and the relative viability (RERF-LC-KJ; first compound 0.1581 µM) was 0.92. For the same compound, the relative viability (RERF-LC-KJ; first compound 0.5 µM) was 0.88, the relative viability (HCC-44; first compound 0.005 µM) was 0.66 and the relative viability (HCC-44; first compound 0.01581 µM) was 0.687. It also gave a relative viability (HCC-44; first compound 0.05 µM) of 0.641, a relative viability (HCC-44; first compound 0.1581 µM) of 0.679 and a relative viability (HCC-44; first compound 0.5 µM) of 0.685. The relative viability (A549; first compound 0.005 µM) was 0.52, the relative viability (A549; first compound 0.01581 µM) was 0.606 and the relative viability (A549; first compound 0.05 µM) was 0.625. The relative viability (A549; first compound 0.1581 µM) was 0.635 and the relative viability (A549; first compound 0.5 µM) was 0.656.
For `COc1cc2nccc(Oc3ccc(NC(=O)Nc4cc(C)on4)c(Cl)c3)c2cc1OC` [Tivozanib] + Cc1nc(NC(=O)N2CCC[C@H]2C(N)=O)sc1-c1ccnc(C(C)(C)C(F)(F)F)c1 [Alpelisib] (partner 2 µM), the relative viability (IA-LM; first compound 0.005 µM) was 0.659, the relative viability (IA-LM; first compound 0.01581 µM) was 0.623 and the relative viability (IA-LM; first compound 0.05 µM) was 0.718. It also gave a relative viability (IA-LM; first compound 0.1581 µM) of 0.597, a relative viability (IA-LM; first compound 0.5 µM) of 0.531 and a relative viability (ABC-1; first compound 0.005 µM) of 0.971. For the same compound, the relative viability (ABC-1; first compound 0.01581 µM) was 0.99, the relative viability (ABC-1; first compound 0.05 µM) was 0.917 and the relative viability (ABC-1; first compound 0.1581 µM) was 1.27. For the same compound, the relative viability (ABC-1; first compound 0.5 µM) was 1.08, the relative viability (NCI-H2126; first compound 0.005 µM) was 0.708 and the relative viability (NCI-H2126; first compound 0.01581 µM) was 0.757. For the same compound, the relative viability (NCI-H2126; first compound 0.05 µM) was 0.763, the relative viability (NCI-H2126; first compound 0.1581 µM) was 0.53 and the relative viability (NCI-H2126; first compound 0.5 µM) was 0.734. It also gave a relative viability (NCI-H1299; first compound 0.005 µM) of 1.09, a relative viability (NCI-H1299; first compound 0.01581 µM) of 1.11 and a relative viability (NCI-H1299; first compound 0.05 µM) of 1.08. It also gave a relative viability (NCI-H1299; first compound 0.1581 µM) of 1.13, a relative viability (NCI-H1299; first compound 0.5 µM) of 1.06 and a relative viability (NCI-H1703; first compound 0.005 µM) of 0.262. The relative viability (NCI-H1703; first compound 0.01581 µM) was 0.179, the relative viability (NCI-H1703; first compound 0.05 µM) was 0.201 and the relative viability (NCI-H1703; first compound 0.1581 µM) was 0.155. The relative viability (NCI-H1703; first compound 0.5 µM) was 0.203, the relative viability (EKVX; first compound 0.005 µM) was 0.903 and the relative viability (EKVX; first compound 0.01581 µM) was 0.93. It also gave a relative viability (EKVX; first compound 0.05 µM) of 0.958, a relative viability (EKVX; first compound 0.1581 µM) of 0.888 and a relative viability (EKVX; first compound 0.5 µM) of 0.872. It also gave a relative viability (NCI-H2085; first compound 0.005 µM) of 1.02, a relative viability (NCI-H2085; first compound 0.01581 µM) of 0.978 and a relative viability (NCI-H2085; first compound 0.05 µM) of 0.905. For the same compound, the relative viability (NCI-H2085; first compound 0.1581 µM) was 0.963, the relative viability (NCI-H2085; first compound 0.5 µM) was 0.642 and the relative viability (EBC-1; first compound 0.005 µM) was 0.79. For the same compound, the relative viability (EBC-1; first compound 0.01581 µM) was 0.924, the relative viability (EBC-1; first compound 0.05 µM) was 0.811 and the relative viability (EBC-1; first compound 0.1581 µM) was 0.59. The relative viability (EBC-1; first compound 0.5 µM) was 0.74, the relative viability (Calu-6; first compound 0.005 µM) was 0.993 and the relative viability (Calu-6; first compound 0.01581 µM) was 0.969. For the same compound, the relative viability (Calu-6; first compound 0.05 µM) was 0.943, the relative viability (Calu-6; first compound 0.1581 µM) was 0.863 and the relative viability (Calu-6; first compound 0.5 µM) was 0.874. For the same compound, the relative viability (NCI-H1993; first compound 0.005 µM) was 0.657, the relative viability (NCI-H1993; first compound 0.01581 µM) was 0.741 and the relative viability (NCI-H1993; first compound 0.05 µM) was 0.688. For the same compound, the relative viability (NCI-H1993; first compound 0.1581 µM) was 0.688, the relative viability (NCI-H1993; first compound 0.5 µM) was 0.695 and the relative viability (RERF-LC-KJ; first compound 0.005 µM) was 0.729. It also gave a relative viability (RERF-LC-KJ; first compound 0.01581 µM) of 0.757, a relative viability (RERF-LC-KJ; first compound 0.05 µM) of 0.965 and a relative viability (RERF-LC-KJ; first compound 0.1581 µM) of 0.689. The relative viability (RERF-LC-KJ; first compound 0.5 µM) was 0.834, the relative viability (HCC-44; first compound 0.005 µM) was 0.815 and the relative viability (HCC-44; first compound 0.01581 µM) was 0.758. For the same compound, the relative viability (HCC-44; first compound 0.05 µM) was 0.803, the relative viability (HCC-44; first compound 0.1581 µM) was 0.756 and the relative viability (HCC-44; first compound 0.5 µM) was 0.831. It also gave a relative viability (A549; first compound 0.005 µM) of 0.715, a relative viability (A549; first compound 0.01581 µM) of 0.754 and a relative viability (A549; first compound 0.05 µM) of 0.793. For the same compound, the relative viability (A549; first compound 0.1581 µM) was 0.612 and the relative viability (A549; first compound 0.5 µM) was 0.774.
